From PubChem BioAssay AID2060325 (Molecular Pharmacology Branch, DTP, NCI, 2025)

Tested on: SK-OV-3 multi-cell spheroids, viability
Test: Anticancer human tumor SK-OV-3 cell line growth inhibition [IpAb];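 for viability, T/C: viability read after seven days of drug exposure; percent of DMSO vehicle control luminescence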
Settings: for IC50: curve of first compound; for viability, T/C: stronger effect = lower value
Excerpt: Combinatorial screen of targeted agents with ipatasertib and abemaciclib in multi-cell type tumor spheroids
A high-throughput screen of multi-cell type tumor spheroids was designed to identify active combinations of targeted small molecules and ipatasertib or abemaciclib. Complex spheroids include a stromal component modeled by human endothelial cells (HUVEC) and fibroblasts modeled by human mesenchymal stem cells (MSCs). The concentration ranges selected for each drug and investigational agent were based upon clinically achievable concentrations if the clinical Cmax of the agent was known.
Compounds. The drugs and investigational agents: ipatasertib (NSC767898), abemaciclib(NSC768073), selumetinib (NSC741078), trametinib (758246), adavosertib (NSC754352), everolimus (NSC733504), sapanisertib (NSC764658), vemurafenib (NSC761431), venetoclax (NSC766270), copanlisib (NSC809693), apelisib (NSC765974), palbociblib (NSC758247), vemurafenib (NSC761431), dabrafenib (NSC764134), ravoxertinib (NSC781343), BMS-387032 (NSC767048), sotorasib (NSC818433), talazoparib (NSC767125) and afursertib (NSC778305), were obtained from the National Cancer Institute (NCI) Developmental Therapeutics Program Chemical Repository. The FDA-approved anticancer drug set is available from the NCI Developmental Therapeutics Program. […] The stock solutions were prepared in dimethyl sulfoxide (DMSO, Sigma-Aldrich, St. Louis, MO, cat. D2650) at 800-fold the tested concentration and stored at -70 degrees C prior to their use. All drugs and investigational agents were tested over a range starting from a high concentration at or near the clinical Cmax and decreasing in half-log increments. If the clinical Cmax for an agent had not been determined, the highest concentration tested was 10 microM.
NCI60 Cell Culture. NCI60 cell lines were obtained from the NCI Developmental Therapeutics Program Tumor Repository. For each lot of cells, the Repository performed Applied Biosystems AmpFLSTR Identifiler testing with PCR amplification to confirm consistency with the published Identifier STR profile for each cell line. Cells were kept in continuous culture for no more than 20 passages. The optimal seeding densities for each of the cell lines at each time point assessed were determined prior to performing the concentration response studies. Briefly, the NCI60 human tumor lines were grown as monolayers in RPMI 1640 medium supplemented with 10% FBS and 2 mmol/L L-glutamine.
An additional 9 lines were from the NCI60 cell line panel including MDA-MB-231 breast carcinoma, MDA-MB-468 breast carcinoma, MCF7 breast carcinoma, Hs578T breast carcinoma, MALME-3M melanoma, SK-MEL-2 melanoma, SK-OV-3 ovarian carcinoma, DU-145 prostate carcinoma, PC-3 prostate carcinoma, all cell lines along with major genetic alterations are listed on Table 2. Pooled donor human umbilical vein endothelial cells (HUVEC, Lonza, cat. CC-2519) and human mesenchymal stem cells (hMSC, Lonza, cat. PT-2501) were purchased from Lonza (Walkersville, MD).
PDMR cell lines were grown in complete medium (DC medium): Dulbecco's modified Eagle's medium (DMEM)/F12 supplemented with 5% fetal bovine serum (FBS), 2 mM L-glutamine, 100 U/mL penicillin and 100 µg/ml streptomycin, 0.4 µg/ml hydrocortisone, 10 ng/ml epidermal growth factor (EGF) recombinant human protein, 24 µg/mL adenine, and 0.1 mg/mL primocin. During culture from frozen stock vials, PDMR cells were cultured in the same medium containing 10 µM Y-27632 (see Table 3). The PDCs were cultured in complete DMEM/F12 media without 10 microM Y-27632 dihydrochloride for at least two passages prior to the screen. The pooled donor HUVEC and hMSC were cultured in endothelial cell growth medium 2 (PromoCell, Heidelberg, Germany, cat. C-22011) and mesenchymal stem cell growth medium 2 (PromoCell, cat. C-28009), respectively. For all experiments, HUVEC and hMSC were used at passages </=5.
[…]

With `C=CCn1c(=O)c2cnc(Nc3ccc(N4CCN(C)CC4)cc3)nc2n1-c1cccc(C(C)(C)O)n1` + CC(C)NCC(C(=O)N1CCN(c2ncnc3c2C(C)CC3O)CC1)c1ccc(Cl)cc1 the IC50 (second compound 0.1 µM) was 0.0591 µM, the IC50 (second compound 0.316 µM) was < 0.0316 µM and the IC50 (second compound 1 µM) was < 0.0316 µM. The IC50 (second compound 3.16 µM) was < 0.0316 µM, the IC50 (second compound 10 µM) was < 0.0316 µM and the viability, T/C (second compound 0.1 µM, first compound 0.0316 µM) was 66.1%. For the same compound, the viability, T/C (second compound 0.1 µM, first compound 0.1 µM) was 36.5%, the viability, T/C (second compound 0.1 µM, first compound 0.316 µM) was 10% and the viability, T/C (second compound 0.1 µM, first compound 1 µM) was 7.27%. It also gave a viability, T/C (second compound 0.1 µM, first compound 3.16 µM) of 4.83%, a viability, T/C (second compound 0.1 µM, first compound 10 µM) of 6.07% and a viability, T/C (second compound 0.316 µM, first compound 0.0316 µM) of 37.5%. It also gave a viability, T/C (second compound 0.316 µM, first compound 0.1 µM) of 24.6%, a viability, T/C (second compound 0.316 µM, first compound 0.316 µM) of 6.94% and a viability, T/C (second compound 0.316 µM, first compound 1 µM) of 7.44%. The viability, T/C (second compound 0.316 µM, first compound 3.16 µM) was 6.92%, the viability, T/C (second compound 0.316 µM, first compound 10 µM) was 6.99% and the viability, T/C (second compound 1 µM, first compound 0.0316 µM) was 19.2%. The viability, T/C (second compound 1 µM, first compound 0.1 µM) was 13.9%, the viability, T/C (second compound 1 µM, first compound 0.316 µM) was 4.18% and the viability, T/C (second compound 1 µM, first compound 1 µM) was 6.74%. It also gave a viability, T/C (second compound 1 µM, first compound 3.16 µM) of 7.21%, a viability, T/C (second compound 1 µM, first compound 10 µM) of 6.84% and a viability, T/C (second compound 3.16 µM, first compound 0.0316 µM) of 13.8%. It also gave a viability, T/C (second compound 3.16 µM, first compound 0.1 µM) of 8.92%, a viability, T/C (second compound 3.16 µM, first compound 0.316 µM) of 2.61% and a viability, T/C (second compound 3.16 µM, first compound 1 µM) of 3.21%. It also gave a viability, T/C (second compound 3.16 µM, first compound 3.16 µM) of 8.27%, a viability, T/C (second compound 3.16 µM, first compound 10 µM) of 5.57% and a viability, T/C (second compound 10 µM, first compound 0.0316 µM) of 8.99%. It also gave a viability, T/C (second compound 10 µM, first compound 0.1 µM) of 4.85%, a viability, T/C (second compound 10 µM, first compound 0.316 µM) of 1.17% and a viability, T/C (second compound 10 µM, first compound 1 µM) of 2.53%. It also gave a viability, T/C (second compound 10 µM, first compound 3.16 µM) of 4.96% and a viability, T/C (second compound 10 µM, first compound 10 µM) of 3.52%.
